Test results from patent publication US20090074785A1, “Compositions and methods for treatment of colorectal cancer” (priority 2007, published 2009).

Tests used:
IBABP-L promoter = IBABP-L promoter luciferase reporter in HCT 116 cells; type: cell-based, human; details: 25 ng/ml for 5 hr, HCT116 cells
Experimental: To verify that NF-κB binds the response element and drives the expression of IBABP-L, a number of studies were performed with deletions and mutations of the promoter linked to a reporter gene (PGL3-Basic Luciferase), as shown in FIG. 18. These studies were performed in HCT 116 colon cancer cells, which have elevated expression of IBABP-L. The region containing the putative NF-κB binding motif (−1563/+78) was amplified from human genomic DNA by PCR. Deletion constructs of this promoter were made through PCR or restriction enzyme digestion. The G C mutation was made through site-directed mutagenesis. The wild type and modified promoters were inserted into PGL3 vector containing firefly Luciferase (Luc) reporter (Promega). Reporter vectors were constructed to either delete the entire putative NF-κB binding motif, or mutate the most conserved “G” to “C” within this motif. The wild type promoter and modified reporters were introduced into HCT 116 cells, and luciferase activity was analyzed at 24 hr.
As shown in FIGS. 19A-C, a functional analysis of the IBABP-L promoter was performed. […] The luciferase activity was measured in 24 h and normalized to the Renilla signal in the absence of the IBABP-L promoter. […] Luciferase activity was measured in 24 hr and normalized. pRL-CMV was included in every transfection. […]

IBABP-L = test: Regulation of expression of IBABP-L in Caco-2 cells, quantitative RT-PCR; type: cell-based, human; details: 24 h
Experimental: (§1) The expression of IBABP-L and IBABP was measured by quantitative RT-PCR. The mRNA copy number of each variant is normalized to the expression the housekeeping gene ARPP0. Values in the figure represent the average of three experiments with each replicate performed in duplicate.
(§2) To determine the relative expression levels of IBABP-L and IBABP, a two-step quantitative RT-PCR procedure was used. In the first step, complementary DNA (cDNA) was synthesized from total RNA. […] In the second step, quantitative PCR (QPCR) was carried out on a Mx 3000P Real-Time PCR System (Stratagene, La Jolla, Calif.) using a solution containing diluted cDNA (1:20; 2.0 μl), 1×SYBR Green PCR Master Mix (Applied Biosystems, Foster City, Calif.), and primers for IBABP-L, IBABP, or ARPP0 (0.25 μM). […]
(§3) Regulation of expression of the IBABP variants in Caco-2 cells. […] Cells were harvested, cellular RNA was isolated using the RNeasy Mini Kit (Qiagen) according to manufacturer instruction, and expression of IBABP variants was determined by QPCR as described above.
(§4) Bile acids differentially regulate the variants of IBABP. […] Caco-2 cells were treated with either chenodeoxycholic acid (CDCA), deoxycholic acid (DCA), or 9cRA, and the relative expression of transcripts encoding IBABP-L and IBABP was measured by quantitative RT-PCR (FIG. 10).

IBABP = test: Regulation of expression of IBABP in Caco-2 cells, quantitative RT-PCR; type: cell-based, human; details: 100 nM, 24 h
Experimental: as §1, §2, §3, §4

BAR (FXR, NR1H4) = biological target: T1, BAR (FXR, NR1H4) (Homo sapiens, UniProt Q96RI1); details: gene-selective BAR modulator; cited from earlier work
T1 sequence (Q96RI1 1-486): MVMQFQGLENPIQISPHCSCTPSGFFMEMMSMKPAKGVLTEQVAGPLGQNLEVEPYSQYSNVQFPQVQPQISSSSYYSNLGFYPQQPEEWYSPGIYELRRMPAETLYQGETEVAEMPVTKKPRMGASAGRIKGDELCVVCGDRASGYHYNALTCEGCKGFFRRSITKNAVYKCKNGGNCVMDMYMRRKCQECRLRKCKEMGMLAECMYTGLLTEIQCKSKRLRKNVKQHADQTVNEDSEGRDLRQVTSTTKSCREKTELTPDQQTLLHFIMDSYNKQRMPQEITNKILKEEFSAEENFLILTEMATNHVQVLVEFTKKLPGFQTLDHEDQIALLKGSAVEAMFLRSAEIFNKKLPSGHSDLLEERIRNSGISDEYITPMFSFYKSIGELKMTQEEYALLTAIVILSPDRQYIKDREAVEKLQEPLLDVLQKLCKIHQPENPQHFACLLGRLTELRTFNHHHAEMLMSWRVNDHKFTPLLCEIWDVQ

Compound: tumor necrosis factor α [TNFα]
- transcription activity of the wild type IBABP-L promoter (IBABP-L promoter): increased
- transcription activity of the mutated IBABP-L promoter (IBABP-L promoter; G to C mutation in NF-κB motif): not the mutated promoter

Compound: CC1=C(/C=C/C(C)=C\C=C\C(C)=C\C(=O)O)C(C)(C)CCC1 [9cRA, 9-cis-retinoic acid]
- effect on expression of IBABP-L (IBABP-L; 100 nM): without effect
- effect on expression of IBABP (IBABP): up-regulated

Compound: CCCCCCOc1c(\C(C)=C/C=C/C(C)=C/C(=O)O)cc(C(C)C)cc1C(C)C [AGN34]
- activity on CYP7A1 (BAR (FXR, NR1H4)): agonist
- activity on IBABP (BAR (FXR, NR1H4)): antagonist
- activity on SHP (BAR (FXR, NR1H4)): neutral

Compound: C[C@H](CCC(=O)O)[C@H]1CC[C@H]2[C@@H]3[C@H](O)C[C@@H]4C[C@H](O)CC[C@]4(C)[C@H]3CC[C@]12C [CDCA, chenodeoxycholic acid]
- effect on expression of IBABP-L (IBABP-L; 100 μM, normalized to ARPP0): without effect
